# Experimental data as given in ChEMBL document CHEMBL1146575, “Imidazole alkaloids from Lepidium meyenii” (2003).
# What was measured:
# Type in all cases: functional
# MIA PaCa-2 = assay: Cytotoxicity against human MIAPaCa2 cells; conditions: read-out: ED50 (the source's name)
# A549 = assay: Cytotoxicity against human A549 cells; conditions: read-out: ED50 (the source's name)
# PC-3 = assay: Cytotoxicity against human PC3 cells; conditions: read-out: ED50 (the source's name)
# HT-29 = assay: Cytotoxicity against human HT-29 cells; conditions: read-out: ED50 (the source's name)
# UMUC3 = assay: Cytotoxicity against human UM-UC-3 cells; conditions: read-out: ED50 (the source's name)
# [1] = Cytotoxicity against human A4982LM cells; conditions: read-out: ED50 (the source's name)
# [2] = Cytotoxicity against human MDA231 cells; conditions: MDA-MB-231, read-out: ED50 (the source's name)
# [3] = Cytotoxicity against human FDIGROV cells; conditions: read-out: ED50 (the source's name)
Compound,EC50 (MIA PaCa-2) [µg/mL],EC50 (A549) [µg/mL],EC50 (PC-3) [µg/mL],EC50 (HT-29) [µg/mL],EC50 (UMUC3) [µg/mL],EC50 [1] [µg/mL],EC50 [2] [µg/mL],EC50 [3] [µg/mL]
Cc1c(C)[n+](Cc2ccccc2)cn1Cc1ccccc1.[Cl-] [LEPIDILINE A],> 10,> 10,> 10,> 10,> 10,> 10,> 10,7.39
Cc1c(C)[n+](Cc2ccccc2)c(C)n1Cc1ccccc1.[Cl-] [LEPIDILINE B],1.38,> 10,> 10,> 10,6.47,> 10,1.66,5.26
